Read-outs that look alike come from different tables or passages of the source.
Experiments:
patients = details: cited from earlier work
[1] = system: patients with multiple myeloma; details: cited from earlier work
[2] = system: subjects with previously untreated multiple myeloma; test: Example 1 randomized open-label study, VMP vs MP: treatment-emergent peripheral neuropathy; details: human, in vivo, 54 weeks
Method: A randomized, open-label, multicenter study was conducted, consisting of 3 Phases: a Pre-randomization (Screening) Phase, an Open-label Treatment Phase, and a Post-treatment Phase. Approximately 680 subjects with previously untreated multiple myeloma were randomly assigned to one of two treatment groups and were stratified according to baseline β2-microglobulin, baseline albumin levels and region (North America, Europe, other). Subjects received either VELCADE™/Melphalan/Prednisone (VMP) (Treatment Group A) or Melphalan/Prednisone (MP) (Treatment Group B). Subjects in Treatment Group A received VELCADE™ 1.3 mg/m^2 (twice weekly [Weeks 1, 2, 4, and 5] for four 6-week cycles [8 doses per cycle] followed by once weekly [Weeks 1, 2, 4, and 5] for five 6-week cycles [4 doses per cycle]) in combination with melphalan 9 mg/m^2 and prednisone 60 mg/m^2 (once daily on Days 1 to 4 of each 6-week cycle). Subjects in Treatment Group B received 9 cycles of melphalan 9 mg/m^2 and prednisone 60 mg/m^2 once daily on Days 1 to 4 of each 6-week cycle. For both groups, treatment continued for a maximum of 9 cycles (54 weeks) and subjects were discontinued if disease progression or an unacceptable treatment-related toxicity occurred, or if a subject withdrew consent.
Included in the analysis are the 368 subjects who met all of the following criteria: consented to DNA analysis; had usable genotype data for SNPs listed in Appendix 1; had Adverse Event related clinical data before treatment and after at least one cycle of VELCADE™ treatment (including those having neurological events and those completing treatment with no neurological event). These 368 subjects included: Treatment Group A (154 Caucasian, 2 black, 10 Asian); Treatment Group B (168 Caucasian, 4 black, 12 Asian), and 18 were not treated.
The primary adverse event endpoints are the treatment-emergent peripheral neuropathies caused by VELCADE™, including peripheral neuropathy NEC, peripheral sensory neuropathy, and neuralgia. For each specific peripheral neuropathy endpoint, the null hypothesis was that none of the successfully genotyped SNPs is associated with this specific treatment-emergent peripheral neuropathy. Each successfully genotyped SNP is tested to see whether there is a difference in the distribution of the genotypes of this SNP between patients with and without this specific VELCADE™ treatment-emergent peripheral neuropathy. The test result is subsequently adjusted by total number of successfully genotyped SNPs to correct multiplicity. […]

[3] = system: patients with newly diagnosed multiple myeloma; details: human, in vivo, 4 cycles
Method: A randomized, open-label, multicenter study was conducted that compared vincristine/adriamycin/dexamethasone (VAD) and VELCADE™/Dexamethasone as induction treatment prior to autologous hematopoietic stem cell transplantation (AHSCT) in patients up to (and including) the age of 65 with newly diagnosed multiple myeloma. Approximately 480 patients were included in this study. Subjects were randomized at diagnosis into one of 4 induction treatment arms: • A1 VAD (4 cycles) • A2 VAD (4 cycles) followed by Dexamethasone/cyclophosphomide/etoposide/cis-Platinum (DCEP) (2 cycles) • B1 VELCADE+dexamethasone (4 cycles) • B2 VELCADE+dexamethasone (4 cycles) followed by DCEP (2 cycles)
Randomization was stratified based on the initial β2 microglobulin level (> or ≦3 mg/l) and the presence of chromosome 13 abnormalities identified by fluorescence in situ hybridization (FISH) analysis. After induction treatment (Arms A1 and B1) or after consolidation treatment (Arms A2 and B2) all of the patients underwent AHSCT.
470 samples were sent to Illumina for genotyping on 2016 SNPs in 172 non-mitochondria genes. Out of the 470 samples, 29 samples are Hapmap control subjects, 3 samples are controls subjects from a Belgium family, and another 4 are samples from Example 1 for quality control. Therefore, there were totally 434 unique subjects from this study (103 in A1, 105 in A2, 111 in B1, 111 in B2 and 4 not treated).
After the quality control and filtering, 212 VELCADE treated subjects were included in the association analysis on non-mtSNPs.
Based on the raw p-values for the association tests, none of the significant associations identified in Example 1 were replicated in Example 2. […] Patients with homogenous genotype of the minor allele of rs4553808 (GG) tend to have earlier onset of peripheral neuropathy than those that contain only 1 or 0 copy of the minor allele (AA/AG): median time to onset was 68 days vs. 70 days.
The association with time and cumulative dosage of VELCADE™ to the onset of different levels of peripheral neuropathy in all 1908 SNPs in Example 2 was tested. No significant associations was identified after multiple testing correction using Bonfferoni (0.05/1908=2.62E-05).

- onset of any peripheral neuropathy [2]: 72 events
- onset of grade≧2 peripheral neuropathy [2]: 50 events
- onset of grade≧3 peripheral neuropathy [2]: 21 events
- onset rate of peripheral neuropathy event [2]: 51.8%
- Neuralgia [3]: 9 cases
- onset rate of peripheral neuropathy event [3]: 44.8%
- peripheral neuropathy NEC [3]: 44 cases
- peripheral sensory neuropathy [3]: 8 cases
SMILES: CC(C)C[C@H](NC(=O)[C@H](Cc1ccccc1)NC(=O)c1cnccn1)B(O)O [VELCADE, bortezomib]
- treatment cycle at which peripheral neuropathy reaches a plateau (patients; in vivo): 5 cycle
- mean rating of associated pain (patients; scale of 0 for no pain and 10 for worst imaginable pain): 7.8
- patients with improvement or resolution of peripheral neuropathy ([1]; after dose discontinuation, patients discontinuing due to Grade 2 PN or who had >Grade 3 PN): 73%
- patients with improvement or resolution of peripheral neuropathy ([1]; after dose reduction, patients with >Grade 2 PN): 51%
- any one of the three adverse events (AE3) [3]: 51 cases
